Measurements: US20240103006A1 (Roche Diagnostics Operations, Inc., priority 2021, published 2024)
“And” between values parts separate entries of the source, which are not always exact repeats. Equal values may be shown once. Marks after values point to notes of the source that are not given here.

Key:
[1] = UV-vis spectral properties / extinction coefficients in aqueous buffer; type: physicochemical; conditions: for ε at λmax / λmax: merocyanine dyes
Description: Absorption spectra were recorded on a Cary 50 UV-vis spectrometer from Varian. All measurements were performed in 1 cm UV-vis disposable cuvettes (BRAND semi-micro) and air-equilibrated solutions at 25±0.1° C. A total assay volume of 1.0 mL was used for each measurement. UV-vis scan spectra were recorded using following parameters: average time 0.05 s; data interval 1 nm; scan rate 1200 nm/min; with base line correction.
(§1) Stock solutions of assayed compounds (2-5 mM) were prepared in H2O-DMSO (1:1), stored at −20° C., and diluted to 1.0 mM with buffer before use. The L-Cys stock solution (20.0 mM) was freshly prepared in buffer before the measurements. […]
For a measurement, 1000 μL of buffer and 1-50 μL of probe (1.0 mM) were mixed, and then transferred to a cuvette. Absorbance spectra (250-800 nm) were measured against a blank of the buffer. At least six concentrations of each compound were used to calculate extinction coefficients from the slope of probe concentration vs absorbance plots, using MS Excel software (Microsoft).

[2] = Cys-response screening by UV-vis (cleavage of acryloyl ester by excess Cys); conditions: for ε^Cys / λ^Cys: after excess Cys (100 μM), 37° C., 15 min; for SNR: from ε^Cys and ε^blank
Description: as §1
In the same manner, ε^Cys was determined from the solutions of probe reacted with an excess of Cys (100 μM). The reactions were performed at 37° C. (incubation time 15 min). Blank reactions were run without addition of Cys.
Spectra recorded in the presence of Cys confirmed a colorimetric response through the cleavage of acryloyl ester. […] Moreover, their spectral profiles were advantageously fulfilling the wavelength requirement for the Cys sensing application in Cedex system (340, 378, 409, 480, 512, 520, 552, 583, 629, 652, 659 and 800 nm).

[3] = Evaluation of stability (hydrolysis of probe in buffer, UV-vis); type: physicochemical; conditions: 25 mM HEPES pH 7.4, 15.6 μM, 5 h, ε from merocyanine analogues (LZ07: ε from Table 2)
Description: For a measurement, 1000 μL of buffer and 16 μL of probe (1.0 mM) were mixed, and then incubated at +4° C. and at +37° C. for 5 h. The resulting mixtures were transferred to a cuvette, and the absorbance (250-800 nm) was measured. Each measurement was done in triplicate.
[…] Solutions of each probe were monitored by UV-vis for 5 h.

[4] = solvent as listed per probe; cited from earlier work
[5] = probe before addition of Cys, 25 mM HEPES pH 7.4
[6] = probe before addition of Cys, same buffer at pH 8.0

SMILES | ε at λmax ([1]; 25 mM HEPES pH 7.4, 1-24 μM) [mM⁻¹ cm⁻¹] | λmax ([1]; 25 mM HEPES pH 7.4, 1-24 μM) [nm] | ε of long-wavelength band of probe [1, 5] [mM⁻¹ cm⁻¹] | ε of short-wavelength band(s) of probe [1, 5] | λmax, long-wavelength band of probe [1, 5] [nm] | λmax, short-wavelength band(s) of probe [1, 5] | Hydrolysis @4° C. [3] [%] | Hydrolysis @37° C. [3] [%] | ε^Cys ([2]; 25 mM HEPES pH 7.4) [mM⁻¹ cm⁻¹] | λ^Cys ([2]; 25 mM HEPES pH 7.4) [nm] | SNR ([2]; 25 mM HEPES pH 7.4) | also measured
CC1(C)C(/C=C/c2ccc(O)c(S(=O)(=O)[O-])c2)=[N+](CCCCS(=O)(=O)O)c2ccccc21 [MF54] | 44.9 | 528 |  |  |  |  |  |  |  |  |  | 
C=CC(=O)Oc1ccc(/C=C/C2=[N+](CCCCS(=O)(=O)[O-])c3ccccc3C2(C)C)c(OC)c1 [MF60] |  |  | 2.1 | 14.3 mM⁻¹ cm⁻¹ | 530 | 409 nm | 9.8 ± 0.3 | 41.8 ± 0.9 | 67.8 | 529 | 14 | 
C=CC(=O)Oc1ccc(/C=C/C2=[N+](CCCCS(=O)(=O)[O-])c3ccccc3C2(C)C)cc1OC [MF61] |  |  | 0.4 | 20.4 mM⁻¹ cm⁻¹ | 548 | 397 nm | 4.8 ± 0.1 | 29.1 ± 1.9 | 61.7 | 549 | 36 | 
C=CC(=O)Oc1ccc(/C=C/C2=[N+](CCCCS(=O)(=O)O)c3ccccc3C2(C)C)c(S(=O)(=O)[O-])c1 [MF64] |  |  | 0.7 | 8.0 mM⁻¹ cm⁻¹ | 514 | 350 nm | 8.9 ± 0.2 | 45.2 ± 1.4 | 32.1 | 514 | 14 | 
C=CC(=O)Oc1ccc(/C=C/C2=[N+](CCCCS(=O)(=O)O)c3ccccc3C2(C)C)cc1S(=O)(=O)[O-] [MF65] |  |  | 1.2 | 17.7 mM⁻¹ cm⁻¹ | 528 | 381 nm | 7.2 ± 0.2 | 28.9 ± 1.4 | 44.3 | 528 | 16 | 
Cc1cc(/C=C/C2=[N+](CCCS(=O)(=O)O)c3ccc(S(=O)(=O)[O-])cc3C2(C)C)cc(C)c1O [MF66] | 122.6 | 556 |  |  |  |  |  |  |  |  |  | ε at λmax ([1]; same buffer at pH 8.0): 138.6 mM⁻¹ cm⁻¹; λmax ([1]; same buffer at pH 8.0): 556 nm
Cc1cc(/C=C/C2=[N+](C)c3ccccc3C2(C)C)cc(C)c1O [MF67] | 67.4 | 546 |  |  |  |  |  |  |  |  |  | ε at λmax ([1]; same buffer at pH 8.0): 84.9 mM⁻¹ cm⁻¹; λmax ([1]; same buffer at pH 8.0): 546 nm
COc1cc(/C=C/C2=[N+](CCCCS(=O)(=O)[O-])c3ccccc3C2(C)C)cc(OC)c1O [MF68] | 70.0 | 575 |  |  |  |  |  |  |  |  |  | 
C=CC(=O)Oc1c(C)cc(/C=C/C2=[N+](C)c3ccccc3C2(C)C)cc1C [MF71] |  |  | 0.6 | 29.1 mM⁻¹ cm⁻¹ | 546 | 387 nm | 1.0 ± 0.1 | 2.3 ± 0.2 | 33.7 | 547 | 48 | ε of long-wavelength band of probe [1, 6]: 0.8 mM⁻¹ cm⁻¹; ε of short-wavelength band of probe [1, 6]: 25.7 mM⁻¹ cm⁻¹; λmax, long-wavelength band of probe [1, 6]: 546 nm; λmax, short-wavelength band of probe [1, 6]: 385 nm; ε^Cys ([2]; same buffer at pH 8.0): 69.6 mM⁻¹ cm⁻¹; λ^Cys ([2]; same buffer at pH 8.0): 547 nm; SNR ([2]; same buffer at pH 8.0): 53**
C=CC(=O)Oc1ccc(/C=C/C2=[N+](C)c3ccccc3C2(C)C)cc1 [drawing 16] |  |  |  |  |  |  |  |  |  |  |  | Spectra: Probe [4]: 384 nm; Spectra: With Cys [4]: 512 nm

Continued, in another order:

ε at λmax ([1]; 25 mM HEPES pH 7.4, 1-24 μM) [mM⁻¹ cm⁻¹] | λmax ([1]; 25 mM HEPES pH 7.4, 1-24 μM) [nm] | ε of long-wavelength band of probe [1, 5] [mM⁻¹ cm⁻¹] | ε of short-wavelength band(s) of probe [1, 5] | λmax, long-wavelength band of probe [1, 5] [nm] | λmax, short-wavelength band(s) of probe [1, 5] | Hydrolysis @4° C. [3] [%] | Hydrolysis @37° C. [3] [%] | SMILES | ε^Cys ([2]; 25 mM HEPES pH 7.4) [mM⁻¹ cm⁻¹] | λ^Cys ([2]; 25 mM HEPES pH 7.4) [nm] | SNR ([2]; 25 mM HEPES pH 7.4) | also measured
70.1 | 529 |  |  |  |  |  |  | COc1cc(O)ccc1/C=C/C1=[N+](CCCCS(=O)(=O)[O-])c2ccccc2C1(C)C [MF52] |  |  |  | 
65.3 | 548 |  |  |  |  |  |  | COc1cc(/C=C/C2=[N+](CCCCS(=O)(=O)[O-])c3ccccc3C2(C)C)ccc1O [MF53] |  |  |  | 
109.7 | 582 |  |  |  |  |  |  | CC1(C)C(/C=C/c2ccc(O)c3ccccc23)=[N+](CCCCS(=O)(=O)[O-])c2ccccc21 [MF56] |  |  |  | 
106.3 | 572 |  |  |  |  |  |  | CC1(C)C(/C=C/c2ccc(O)c3ncccc23)=[N+](CCCCS(=O)(=O)[O-])c2ccccc21 [MF57] |  |  |  | 
48.1 | 514 |  |  |  |  |  |  | CC1(C)C(/C=C/c2ccc(O)cc2S(=O)(=O)[O-])=[N+](CCCCS(=O)(=O)O)c2ccccc21 [MF58] |  |  |  | 
 |  | 1.5 | 8.5 mM⁻¹ cm⁻¹ and 7.7 mM⁻¹ cm⁻¹ | 582 | 419 nm and 287 nm | 7.6 ± 0.5 | 40.4 ± 0.6 | C=CC(=O)Oc1ccc(/C=C/C2=[N+](CCCCS(=O)(=O)[O-])c3ccccc3C2(C)C)c2ccccc12 [MF62] | 105.3 | 582 | 20 | 
 |  | 2.9 | 14.0 mM⁻¹ cm⁻¹ | 572 | 397 nm | 9.8 ± 1.5 | 55.3 ± 0.7 | C=CC(=O)Oc1ccc(/C=C/C2=[N+](CCCCS(=O)(=O)[O-])c3ccccc3C2(C)C)c2cccnc12 [MF63] | 93.4 | 572 | 10 | 
